Measured values reported in ChEMBL document CHEMBL3763143, “Novel morpholine scaffolds as selective dopamine (DA) D3 receptor antagonists” (Bioorg Med Chem Lett, 2016).
Active and inactive are the calls of the source. The rule behind the calls is not given here.

Experiments:
[1] = target: D(3) dopamine receptor (Rattus norvegicus, UniProt P19020)
Description: Displacement of [125I]-7-OH-PIPAT from rat brain dopamine D3 receptor after 45 mins by microplate scintillation counting analysis

[2] = target: T1, D(3) dopamine receptor (Homo sapiens, UniProt P35462); test: Agonist activity at human dopamine D3 receptor expressed in CHO cells after 90 mins by [35S]-GTPgamma S assay; assay type: cell-based
[3] = target: T1, D(3) dopamine receptor; test: Antagonist activity at human dopamine D3 receptor expressed in CHO cells after 90 mins by [35S]-GTPgamma S assay; assay type: cell-based
[4] = target: Voltage-gated inwardly rectifying potassium channel KCNH2 (Homo sapiens, UniProt Q12809); test: Displacement of [3H]-dofetilide from human ERG potassium channel by scintillation proximity assay
[5] = target: Dopamine receptor D2 and D3 (Rattus norvegicus) (UniProt P19020+P61169); test: Selectivity ratio of Ki for rat brain dopamine D2 receptor to Ki for rat brain dopamine D3 receptor
[6] = target: T2, Muscarinic acetylcholine receptor M1 (Homo sapiens, UniProt P11229); test: Antagonist activity at muscarinic M1 receptor (unknown origin)
T2 sequence (P11229 whole entry): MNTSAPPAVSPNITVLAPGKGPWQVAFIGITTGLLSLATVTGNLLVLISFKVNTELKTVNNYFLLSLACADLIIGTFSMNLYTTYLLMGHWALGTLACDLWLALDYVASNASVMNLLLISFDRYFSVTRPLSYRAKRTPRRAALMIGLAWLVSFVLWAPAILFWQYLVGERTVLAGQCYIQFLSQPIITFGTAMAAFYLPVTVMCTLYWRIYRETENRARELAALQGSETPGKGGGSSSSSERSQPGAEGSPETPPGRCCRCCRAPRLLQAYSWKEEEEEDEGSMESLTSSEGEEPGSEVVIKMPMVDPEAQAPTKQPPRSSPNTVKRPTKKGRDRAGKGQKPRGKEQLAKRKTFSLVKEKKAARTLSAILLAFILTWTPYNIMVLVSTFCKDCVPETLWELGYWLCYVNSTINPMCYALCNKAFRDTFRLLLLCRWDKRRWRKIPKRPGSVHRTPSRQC

[7] = target: D(1A) dopamine receptor (Homo sapiens, UniProt P21728); test: Binding affinity to dopamine D1 receptor (unknown origin)
[8] = target: T3, D(4) dopamine receptor (Homo sapiens) (UniProt P21917); test: (§1) Binding affinity to dopamine D4 receptor (unknown origin)
T3 sequence (whole entry): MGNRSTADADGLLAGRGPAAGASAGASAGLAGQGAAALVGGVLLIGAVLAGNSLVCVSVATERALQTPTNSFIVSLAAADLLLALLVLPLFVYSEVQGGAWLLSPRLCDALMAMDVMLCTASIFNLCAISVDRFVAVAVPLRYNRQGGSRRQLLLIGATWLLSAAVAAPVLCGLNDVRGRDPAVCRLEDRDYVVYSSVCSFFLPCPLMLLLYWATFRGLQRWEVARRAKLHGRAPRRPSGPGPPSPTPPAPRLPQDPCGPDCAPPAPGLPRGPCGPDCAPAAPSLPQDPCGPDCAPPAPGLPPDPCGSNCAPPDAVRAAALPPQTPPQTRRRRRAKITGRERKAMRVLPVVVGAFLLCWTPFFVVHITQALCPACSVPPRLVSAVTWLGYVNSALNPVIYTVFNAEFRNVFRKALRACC

[9] = target: Muscarinic acetylcholine receptor M3 (Homo sapiens, UniProt P20309); test: Binding affinity to muscarinic M3 receptor (unknown origin)
[10] = target: T4, D(4) dopamine receptor (Homo sapiens, UniProt P21917); test: as §1
T4 sequence (P21917 whole entry): T3 sequence (whole entry)

[11] = target: T5, Cytochrome P450 1A2 (Homo sapiens, UniProt P05177); test: Inhibition of human CYP1A2 expressed in bactosome; assay type: ADME
T5 sequence (P05177 whole entry): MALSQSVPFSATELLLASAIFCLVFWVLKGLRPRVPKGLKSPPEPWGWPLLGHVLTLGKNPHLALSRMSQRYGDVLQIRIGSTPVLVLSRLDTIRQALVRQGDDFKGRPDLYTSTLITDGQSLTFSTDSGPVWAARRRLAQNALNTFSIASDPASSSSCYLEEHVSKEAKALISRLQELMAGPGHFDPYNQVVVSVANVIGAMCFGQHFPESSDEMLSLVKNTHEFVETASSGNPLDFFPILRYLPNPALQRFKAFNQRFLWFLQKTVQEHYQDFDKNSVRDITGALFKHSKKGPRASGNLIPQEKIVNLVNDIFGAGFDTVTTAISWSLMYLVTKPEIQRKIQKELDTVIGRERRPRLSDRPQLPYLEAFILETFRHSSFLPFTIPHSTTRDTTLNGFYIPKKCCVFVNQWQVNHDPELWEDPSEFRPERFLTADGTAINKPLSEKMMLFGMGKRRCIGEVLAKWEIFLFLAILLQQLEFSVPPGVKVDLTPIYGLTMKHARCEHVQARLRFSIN

[12] = target: Cytochrome P450 2C9 (Homo sapiens, UniProt P11712); test: Inhibition of human CYP2C9 expressed in bactosome; assay type: ADME
[13] = target: Cytochrome P450 2C19 (Homo sapiens, UniProt P33261); test: Inhibition of human CYP2C19 expressed in bactosome; assay type: ADME
[14] = target: Cytochrome P450 2D6 (Homo sapiens, UniProt P10635); test: Inhibition of human CYP2D6 expressed in bactosome; assay type: ADME
[15] = target: T6, Cytochrome P450 3A4 (Homo sapiens, UniProt P08684); test: Inhibition of human CYP3A4 expressed in bactosome using DBOMF as substrate; assay type: ADME
[16] = target: T6, Cytochrome P450 3A4; test: Inhibition of human CYP3A4 expressed in bactosome using 7BQ as substrate; assay type: ADME
[17] = Intrinsic clearance in human liver microsomes assessed per mg of protein; assay type: ADME; conditions: read-out: CLH
[18] = Fraction absorbed in portal vein-cannulated rat; assay type: ADME, organism-based; conditions: in vivo
[19] = Volume of distribution at steady state in portal vein-cannulated rat; assay type: ADME, organism-based; conditions: in vivo, read-out: Vdss
[20] = Blood clearance in portal vein-cannulated rat; assay type: ADME, organism-based; conditions: whole blood
[21] = Half life in portal vein-cannulated rat; assay type: ADME, organism-based; conditions: in vivo
[22] = Bioavailability in portal vein-cannulated rat; assay type: ADME, organism-based; conditions: in vivo
[23] = Fraction unbound in portal vein-cannulated rat blood; assay type: ADME, tissue-based
[24] = Fraction unbound in portal vein-cannulated rat brain; assay type: ADME, tissue-based
[25] = Intrinsic clearance in rat liver microsomes assessed per mg of protein; assay type: ADME; conditions: read-out: CLH

Chain of Cytochrome P450 2D6 (P10635 whole entry): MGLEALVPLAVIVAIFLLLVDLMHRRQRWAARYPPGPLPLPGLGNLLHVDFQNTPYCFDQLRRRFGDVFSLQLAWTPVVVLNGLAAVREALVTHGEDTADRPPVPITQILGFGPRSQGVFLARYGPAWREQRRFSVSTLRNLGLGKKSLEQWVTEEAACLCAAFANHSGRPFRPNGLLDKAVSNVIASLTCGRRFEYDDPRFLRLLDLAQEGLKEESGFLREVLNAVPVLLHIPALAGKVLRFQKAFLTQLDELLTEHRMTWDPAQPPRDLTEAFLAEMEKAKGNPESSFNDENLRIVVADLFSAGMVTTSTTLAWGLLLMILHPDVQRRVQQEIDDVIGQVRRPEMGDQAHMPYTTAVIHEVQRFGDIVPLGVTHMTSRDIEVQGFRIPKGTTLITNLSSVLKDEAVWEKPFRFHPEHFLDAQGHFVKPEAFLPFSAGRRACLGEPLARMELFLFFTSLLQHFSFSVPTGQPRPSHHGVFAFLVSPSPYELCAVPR
Chain of Cytochrome P450 2C19 (P33261 whole entry): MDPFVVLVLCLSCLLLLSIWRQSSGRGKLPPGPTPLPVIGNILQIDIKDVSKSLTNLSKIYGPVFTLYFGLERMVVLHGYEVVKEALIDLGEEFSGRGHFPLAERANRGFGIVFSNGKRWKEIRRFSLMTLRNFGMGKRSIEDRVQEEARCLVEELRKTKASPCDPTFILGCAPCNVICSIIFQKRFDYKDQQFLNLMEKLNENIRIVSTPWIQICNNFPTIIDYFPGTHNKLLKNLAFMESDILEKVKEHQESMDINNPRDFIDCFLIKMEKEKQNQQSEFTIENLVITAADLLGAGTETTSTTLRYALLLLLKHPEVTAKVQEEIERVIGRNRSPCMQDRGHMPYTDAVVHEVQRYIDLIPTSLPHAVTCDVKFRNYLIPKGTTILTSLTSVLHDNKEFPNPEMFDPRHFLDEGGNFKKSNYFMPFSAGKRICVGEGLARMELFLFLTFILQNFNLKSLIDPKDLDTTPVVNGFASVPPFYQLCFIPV
Chain of Cytochrome P450 2C9 (P11712 whole entry): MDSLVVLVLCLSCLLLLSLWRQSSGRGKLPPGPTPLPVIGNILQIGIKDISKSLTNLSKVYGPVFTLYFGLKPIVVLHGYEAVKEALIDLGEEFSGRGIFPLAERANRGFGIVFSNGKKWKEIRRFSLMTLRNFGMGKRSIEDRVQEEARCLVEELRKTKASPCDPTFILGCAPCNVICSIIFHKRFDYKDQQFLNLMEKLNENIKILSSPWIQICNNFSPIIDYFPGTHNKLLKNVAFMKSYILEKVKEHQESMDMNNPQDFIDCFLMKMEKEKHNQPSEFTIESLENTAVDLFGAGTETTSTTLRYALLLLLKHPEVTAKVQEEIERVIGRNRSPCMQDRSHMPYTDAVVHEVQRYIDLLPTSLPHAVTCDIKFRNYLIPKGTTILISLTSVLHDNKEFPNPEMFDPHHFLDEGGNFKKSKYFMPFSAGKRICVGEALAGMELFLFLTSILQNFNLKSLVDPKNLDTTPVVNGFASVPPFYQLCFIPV
Chain of D(1A) dopamine receptor (P21728 whole entry): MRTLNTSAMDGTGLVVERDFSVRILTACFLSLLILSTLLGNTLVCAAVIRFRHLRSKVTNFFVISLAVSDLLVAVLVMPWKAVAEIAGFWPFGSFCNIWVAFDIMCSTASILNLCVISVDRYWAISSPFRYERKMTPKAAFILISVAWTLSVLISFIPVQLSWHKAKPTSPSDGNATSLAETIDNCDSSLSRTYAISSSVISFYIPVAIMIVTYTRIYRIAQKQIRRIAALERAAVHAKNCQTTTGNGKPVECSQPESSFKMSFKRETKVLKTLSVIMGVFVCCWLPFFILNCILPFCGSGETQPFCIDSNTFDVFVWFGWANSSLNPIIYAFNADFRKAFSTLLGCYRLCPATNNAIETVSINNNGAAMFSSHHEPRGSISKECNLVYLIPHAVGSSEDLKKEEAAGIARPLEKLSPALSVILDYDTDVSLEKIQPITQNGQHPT
T1 sequence (P35462 whole entry): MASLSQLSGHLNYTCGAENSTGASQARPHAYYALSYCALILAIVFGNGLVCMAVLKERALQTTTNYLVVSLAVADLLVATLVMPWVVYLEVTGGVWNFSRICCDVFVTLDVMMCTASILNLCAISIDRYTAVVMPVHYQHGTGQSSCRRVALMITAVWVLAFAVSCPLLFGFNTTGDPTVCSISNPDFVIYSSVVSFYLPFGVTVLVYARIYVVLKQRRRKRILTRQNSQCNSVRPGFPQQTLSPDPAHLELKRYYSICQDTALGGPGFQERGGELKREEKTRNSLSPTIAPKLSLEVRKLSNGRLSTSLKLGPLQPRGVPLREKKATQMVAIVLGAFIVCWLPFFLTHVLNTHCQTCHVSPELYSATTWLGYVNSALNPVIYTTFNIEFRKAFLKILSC
T6 sequence (P08684 whole entry): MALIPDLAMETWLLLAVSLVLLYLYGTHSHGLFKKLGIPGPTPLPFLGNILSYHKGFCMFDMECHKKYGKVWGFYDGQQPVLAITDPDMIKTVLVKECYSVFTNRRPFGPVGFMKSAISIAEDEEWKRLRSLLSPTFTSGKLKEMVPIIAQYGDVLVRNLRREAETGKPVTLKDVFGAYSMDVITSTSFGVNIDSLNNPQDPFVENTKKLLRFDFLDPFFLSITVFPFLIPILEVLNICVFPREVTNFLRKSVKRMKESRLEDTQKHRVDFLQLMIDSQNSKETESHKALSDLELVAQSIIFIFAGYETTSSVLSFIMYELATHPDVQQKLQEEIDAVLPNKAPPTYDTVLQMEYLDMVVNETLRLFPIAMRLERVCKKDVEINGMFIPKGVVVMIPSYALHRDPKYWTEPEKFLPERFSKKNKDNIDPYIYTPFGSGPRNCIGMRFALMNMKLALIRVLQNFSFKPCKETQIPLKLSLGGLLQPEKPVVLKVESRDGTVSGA
Chain of Voltage-gated inwardly rectifying potassium channel KCNH2 (Q12809 whole entry): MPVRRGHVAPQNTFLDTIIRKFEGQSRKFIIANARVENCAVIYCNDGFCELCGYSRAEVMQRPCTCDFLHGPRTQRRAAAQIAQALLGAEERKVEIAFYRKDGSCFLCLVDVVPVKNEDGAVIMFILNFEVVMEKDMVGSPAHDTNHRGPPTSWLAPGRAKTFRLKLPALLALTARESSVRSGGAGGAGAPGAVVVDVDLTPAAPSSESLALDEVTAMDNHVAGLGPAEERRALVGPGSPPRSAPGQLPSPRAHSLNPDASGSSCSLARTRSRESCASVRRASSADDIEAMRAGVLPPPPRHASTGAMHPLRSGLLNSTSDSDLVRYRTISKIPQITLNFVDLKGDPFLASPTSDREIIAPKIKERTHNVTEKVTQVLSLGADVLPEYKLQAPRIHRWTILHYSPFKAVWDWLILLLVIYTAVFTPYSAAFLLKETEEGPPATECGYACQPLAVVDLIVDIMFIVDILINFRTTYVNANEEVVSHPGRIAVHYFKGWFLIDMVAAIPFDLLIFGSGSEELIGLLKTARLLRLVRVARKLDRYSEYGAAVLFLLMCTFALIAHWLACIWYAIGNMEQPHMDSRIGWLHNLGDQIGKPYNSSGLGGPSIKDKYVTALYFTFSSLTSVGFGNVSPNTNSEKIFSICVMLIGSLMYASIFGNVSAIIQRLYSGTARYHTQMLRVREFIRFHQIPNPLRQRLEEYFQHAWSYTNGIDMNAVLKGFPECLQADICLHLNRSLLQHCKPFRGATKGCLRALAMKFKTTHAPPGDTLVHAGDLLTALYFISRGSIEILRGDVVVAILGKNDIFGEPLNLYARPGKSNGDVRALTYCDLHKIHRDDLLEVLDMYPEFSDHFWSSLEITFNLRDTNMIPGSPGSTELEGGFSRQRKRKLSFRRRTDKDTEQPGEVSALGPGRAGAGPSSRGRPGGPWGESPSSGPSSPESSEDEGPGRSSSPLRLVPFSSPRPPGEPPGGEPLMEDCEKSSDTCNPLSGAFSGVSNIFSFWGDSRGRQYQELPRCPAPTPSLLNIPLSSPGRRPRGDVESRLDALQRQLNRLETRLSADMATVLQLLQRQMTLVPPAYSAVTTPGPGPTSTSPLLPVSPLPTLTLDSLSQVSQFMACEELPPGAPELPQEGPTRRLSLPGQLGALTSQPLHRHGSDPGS
Chain of D(3) dopamine receptor (Rattus norvegicus, UniProt P19020) (P19020 whole entry): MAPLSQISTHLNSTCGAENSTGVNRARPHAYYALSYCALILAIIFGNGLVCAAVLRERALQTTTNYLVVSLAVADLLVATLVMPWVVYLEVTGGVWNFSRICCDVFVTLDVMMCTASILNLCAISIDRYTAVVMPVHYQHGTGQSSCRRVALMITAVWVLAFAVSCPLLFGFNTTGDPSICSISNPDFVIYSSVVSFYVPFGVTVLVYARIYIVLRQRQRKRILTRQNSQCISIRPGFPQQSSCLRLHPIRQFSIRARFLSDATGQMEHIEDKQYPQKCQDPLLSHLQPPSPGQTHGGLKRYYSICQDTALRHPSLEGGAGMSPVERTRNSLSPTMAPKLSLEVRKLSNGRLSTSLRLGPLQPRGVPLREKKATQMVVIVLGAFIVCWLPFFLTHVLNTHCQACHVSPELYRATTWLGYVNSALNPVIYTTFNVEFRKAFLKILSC
Chain of Dopamine receptor D2 and D3 (Rattus norvegicus) (P19020 whole entry, looked up): as the sequence (P19020 whole entry) above
Chain of Dopamine receptor D2 and D3 (Rattus norvegicus) (P61169 whole entry, looked up): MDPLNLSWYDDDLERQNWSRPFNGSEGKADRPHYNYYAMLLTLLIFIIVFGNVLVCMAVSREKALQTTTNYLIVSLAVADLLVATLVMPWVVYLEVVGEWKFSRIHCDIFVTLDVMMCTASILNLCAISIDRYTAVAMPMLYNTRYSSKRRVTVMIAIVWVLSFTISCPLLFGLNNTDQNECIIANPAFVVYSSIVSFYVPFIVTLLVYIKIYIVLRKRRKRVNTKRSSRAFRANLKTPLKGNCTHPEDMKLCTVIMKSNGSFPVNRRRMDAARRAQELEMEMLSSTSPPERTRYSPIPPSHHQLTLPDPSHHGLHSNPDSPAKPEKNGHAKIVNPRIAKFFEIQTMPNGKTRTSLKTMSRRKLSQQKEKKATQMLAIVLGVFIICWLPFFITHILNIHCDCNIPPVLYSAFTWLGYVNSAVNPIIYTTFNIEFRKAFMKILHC

Ki [1] [nM] | Ki [2] [nM] | Ki [3] [nM] | SMILES | also measured
100 | > 10000 |  | Cn1c(SCCCN2CCOC(c3ccc(C(F)(F)F)cc3)C2)nnc1-c1ccncc1 (racemic) | 
79.4 | > 10000 | 25.1 | Cc1ncoc1-c1nnc(SCCCCN2CCOC(c3ccc(C(F)(F)F)cc3)C2)n1C (racemic) | 
5.01 | > 10000 | 10 | Cn1c(SCCCN2CCOC(c3ccc(C(F)(F)F)cc3)C2)nnc1-c1ccc(-c2ncco2)cc1 (racemic) [listing 1 of 2 here] | Ki [4]: 1000 nM
100 | > 10000 |  | Cn1c(SCCCN2CCOC(c3ccc(C(F)(F)F)cc3)C2)nnc1-c1ccsc1 (racemic) | 
316 | > 10000 |  | Cn1c(SCCCN2CCOC(c3ccc(C(F)(F)F)cc3)C2)nnc1-c1cccc(C(N)=O)c1 (racemic) | 
39.8 | > 10000 | 20 | Cn1c(SCCCN2CCOC(c3ccc(C(F)(F)F)cc3)C2)nnc1C1CCCCC1 (racemic) | Ratio Ki [5]: 200
79.4 | > 10000 | 15.8 | Cc1ccc(C2CN(CCCSc3nnc(-c4ccc(-c5noc(C)n5)cc4)n3C)CCO2)cc1 (racemic) | Ki [4]: 1000 nM
631 | > 10000 |  | Cn1cncc1-c1nnc(SCCCN2CCOC(c3ccc(C(F)(F)F)cc3)C2)n1C (racemic) | 
31.6 | > 10000 | 15.8 | Cn1c(SCCCN2CCOC(c3ccc(C(F)(F)F)cc3)C2)nnc1-c1ccc(C(N)=O)nc1 (racemic) | Ki [4]: 2000 nM
200 | > 10000 |  | Cc1ncoc1-c1nnc(SCCCN2CCOC(c3ccc(C(F)(F)F)cc3F)C2)n1C (racemic) | 
63.1 | > 10000 | 39.8 | Cn1c(SCCCN2CCOC(c3ccc(C(F)(F)F)cc3F)C2)nnc1-c1ccc(C(N)=O)cc1 (racemic) | 
251 | > 10000 |  | Cn1c(SCCCN2CCOC(c3ccc(C(F)(F)F)cc3)C2)nnc1-c1cccnc1 (racemic) | 
100 | > 10000 |  | Cn1c(SCCCN2CCOC(c3ccc(C(F)(F)F)cc3)C2)nnc1-c1ccc(C#N)cc1 (racemic) | 
126 | > 10000 |  | Cn1cccc1-c1nnc(SCCCN2CCOC(c3ccc(C(F)(F)F)cc3)C2)n1C (racemic) | 
126 | > 10000 |  | Cn1c(SCCCN2CCOC(c3ccc(C(F)(F)F)cc3)C2)nnc1-c1ccc(S(N)(=O)=O)cc1 (racemic) | 
200 | > 10000 |  | Cc1ncoc1-c1nnc(SCCCN2CCOC(c3ccc(Br)cc3)C2)n1C (racemic) | 
251 | > 10000 |  | Cn1c(SCCCN2CCOC(c3ccc(C(F)(F)F)cc3)C2)nnc1-c1nccs1 (racemic) | 
126 | > 10000 |  | Cn1c(SCCCN2CCOC(c3ccc(C(F)(F)F)cc3)C2)nnc1-c1ccc(-n2cnnc2)cc1 (racemic) | 
158 | > 10000 |  | Cn1c(SCCCN2CCOC(c3ccc(C(F)(F)F)cc3)C2)nnc1-c1cnccn1 (racemic) | 
25.1 | > 10000 | 10 | Cc1nc(-c2ccc(-c3nnc(SCCCN4CCOC(c5ccc(C(F)(F)F)cc5)C4)n3C)cc2)no1 (racemic) | 
63.1 | > 10000 | 20 | CC(=O)c1ccc(-c2nnc(SCCCN3CCOC(c4ccc(C(F)(F)F)cc4)C3)n2C)cc1 (racemic) | 
15.8 | > 10000 | 12.6 | Cn1c(SCCCN2CCOC(c3ccc(C(F)(F)F)cc3)C2)nnc1-c1ccc(-c2nnco2)cc1 (racemic) | 
501 | > 10000 |  | Cc1ccc(C2CN(CCCSc3nnc(-c4ocnc4C)n3C)CCO2)cc1 (racemic) | 
100 | > 10000 |  | Cn1c(SCCCN2CCOC(c3ccc(C(F)(F)F)cc3)C2)nnc1-c1cncc(C(N)=O)c1 (racemic) | 
 |  |  | Cn1c(SCCCN2CCOC(c3ccc(C(F)(F)F)cc3)C2)nnc1-c1ccc(-c2ncco2)cc1 (racemic) [listing 2 of 2 here] | Ratio Ki [5]: 300
 |  |  | Cn1c(SCCCN2CCOC(c3ccc(C(F)(F)F)cc3)C2)nnc1-c1ccc(C(N)=O)cc1 (racemic) [listing 2 of 2 here] | Activity [7]: inactive; Activity [8]: inactive; Activity [9]: inactive
 |  |  | Cc1ncoc1-c1nnc(SCCCN2CCOC(c3ccc(F)cc3)C2)n1C (stereo in doubt; 7) | Activity [7]: inactive; Activity [8]: inactive; Activity [9]: inactive
 |  | 15.8 | Cc1ncoc1-c1nnc(SCCCCN2CCOC(c3ccc(C(F)(F)F)cc3)C2)n1C (stereo in doubt; 11) | pKi [1]: 7.1; Ki [4]: 2510 nM
398 |  |  | Cn1c(SCCCN2CCOC(c3ccc(C(F)(F)F)cc3)C2)nnc1-c1ccc(-c2ncco2)cc1 (stereo in doubt; 33) | 
6.31 |  | 3.16 | Cn1c(SCCCN2CCOC(c3ccc(C(F)(F)F)cc3)C2)nnc1-c1ccc(-c2ncco2)cc1 (stereo in doubt; 34) | Ki [4]: 1260 nM; IC50 [11]: > 3000 nM; IC50 [12]: > 3000 nM; IC50 [13]: > 3000 nM; IC50 [14]: > 3000 nM; IC50 [15]: > 3000 nM; IC50 [16]: > 3000 nM; microsomal CLint [17]: 668 µL/min/mg; microsomal CLint [25]: 114 µL/min/mg; fraction unbound [23]: 0.008; fraction unbound [24]: 0.005

SMILES | Ki [1] [nM] | Ki [2] [nM] | Ki [3] [nM] | also measured
Cc1ncoc1-c1nnc(SCCCN2CCOC(c3ccc(C(F)(F)F)cc3)C2)n1C (racemic) | 126 |  |  | 
Cn1c(SCCCN2CCOC(c3ccc(C(F)(F)F)cc3)C2)nnc1-c1ccc(C(N)=O)cc1 (racemic) [listing 1 of 2 here] | 31.6 | > 10000 | 20 | Ki [4]: 5010 nM; Ki [6]: 1000 nM
Cc1ncoc1-c1nnc(SCCCN2CCOC(c3ccc(F)cc3)C2)n1C (racemic) | 398 | > 10000 |  | 
Cc1ncoc1-c1nnc(SCCCN2CCOC(c3ccc(C(F)(F)F)cc3)C2)n1C (stereo in doubt; 9) | 50.1 |  |  | Ki [4]: 3160 nM; Ki [7]: > 100000 nM; Ki [10]: > 100000 nM; Ki [9]: 1000 nM; Ki [6]: 1000 nM; IC50 [11]: > 6000 nM; IC50 [12]: > 6000 nM; IC50 [13]: > 6000 nM; IC50 [14]: > 6000 nM; IC50 [15]: > 6000 nM; IC50 [16]: > 6000 nM; microsomal CLint [17]: 40 µL/min/mg; Fa [18]: 63%; Vd [19]: 2.5 L/kg; clearance [20]: 13.5 mL/min/kg; half-life [21]: 3.5 h; bioavailability [22]: 58%; fraction unbound [23]: 0.062; fraction unbound [24]: 0.071
Cn1c(SCCCN2CCOC(c3ccc(C(F)(F)F)cc3)C2)nnc1-c1ccc(C(N)=O)cc1 (stereo in doubt; 26) | 15.8 |  | 6.31 | Ki [4]: 6310 nM; IC50 [11]: > 30000 nM; IC50 [12]: > 30000 nM; IC50 [13]: > 30000 nM; IC50 [14]: > 30000 nM; IC50 [15]: > 30000 nM; IC50 [16]: > 30000 nM; microsomal CLint [17]: 63.2 µL/min/mg; microsomal CLint [25]: 16.3 µL/min/mg; fraction unbound [23]: 0.045; fraction unbound [24]: 0.03
